# Values joined by “and” are separate entries in the source; they are usually repeats but may differ in a detail not shown here. Equal values may be shown once. “Also recorded” adds a separate entry of the source.
# Assays:
# [1] = tested on: heavily pretreated patients with advanced NSCLC; assay: CA209-003 phase 1: nivolumab monotherapy, safety
# [2] = tested on: heavily pretreated patients with advanced NSCLC; assay: CA209-003 phase 1: nivolumab monotherapy, efficacy (RECIST 1.0, OS, subgroups, PD-L1); format: in vivo, human
# Method: Objective response rate (ORR) was analyzed according to select patient characteristics (age, gender, Eastern Cooperative Oncology Group performance status [ECOG PS], histology, number of prior therapies, prior tyrosine kinase inhibitor [TKI] therapy, epidermal growth factor receptor [EGFR] and Kirsten rat sarcoma viral oncogene homolog [KRAS] mutational status).
# PD-L1 expression in archived tumor samples was measured using the Dako immunohistochemistry (IHC) assay. Positive staining with this assay was defined as tumor membrane staining at any intensity, and was analyzed with cut-off values of 1% and 5% expression to assess PD-L1 positivity (Butte M J, et al.). Tumor PD-L1 expression was evaluated for potential association with clinical endpoints.
# [3] = biological target: T1, PD-1 (Homo sapiens, UniProt Q15116); details: 15 subjects, 0.3 mg/kg to 10 mg/kg, across all doses, cited from earlier work
# T1 construct: Receptor-occupancy data from 15 subjects who received 0.3 mg/kg to 10 mg/kg dosing with nivolumab; endogenous in cells
# T1 sequence (Q15116 25-288): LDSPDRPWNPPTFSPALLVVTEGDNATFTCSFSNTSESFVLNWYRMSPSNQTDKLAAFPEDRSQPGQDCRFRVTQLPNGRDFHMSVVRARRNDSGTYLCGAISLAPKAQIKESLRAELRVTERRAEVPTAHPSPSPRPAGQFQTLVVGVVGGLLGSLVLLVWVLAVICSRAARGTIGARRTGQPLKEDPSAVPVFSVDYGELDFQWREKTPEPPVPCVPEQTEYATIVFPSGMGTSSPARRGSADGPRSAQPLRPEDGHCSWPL
substance,measurement,setting,value
nivolumab,"select AE Skin, Any Grade",[1]; N = 129,16 (20) % (n)
same,"select AE Skin, Grade 3-4",[1]; N = 129,0 % (n)
same,decreased appetite,[1]; NSCLC cohort,12%
same,diarrhea,[1]; NSCLC cohort,10%
same,fatigue,[1]; NSCLC cohort,24%
same,Rate of grade 3-4 treatment-related AEs,[1]; NSCLC cohort (n = 129),14%
same,patients with grade 3-5 treatment-related pneumonitis,"[1]; NSCLC cohort, 4 patients",3%
same,patients with treatment-related pulmonary events,"[1]; NSCLC cohort, 12 patients",9%
same,treatment-related deaths,[1]; all associated with pneumonitis,Three
same,Rate of grade 3-4 treatment-related AEs,[1]; overall study patient population (N = 306),17%
same,maximum tolerated dose,[1]; up to 10 mg/kg every two weeks,without reaching the maximum tolerated does (MTD); also recorded: A maximum tolerated dose was not reached
same,Estimated Median DOR,[2]; 1 mg/kg,63.9 wks
same,Median OS,[2]; 1 mg/kg,9.2 mo
same,Median PFS,[2]; 1 mg/kg,1.8 mo
same,ORR,[2]; 1 mg/kg,3.0%
same,OS Rate 1-year,[2]; 1 mg/kg,32%
same,OS Rate 2-year,[2]; 1 mg/kg,12%
same,Estimated Median DOR,[2]; 3 mg/kg,74.0 wks
same,Median OS,[2]; 3 mg/kg,14.9 mo
same,Median PFS,[2]; 3 mg/kg,1.9 mo
same,ORR,[2]; 3 mg/kg,24% and 24.3%
same,OS Rate 1-year,[2]; 3 mg/kg,56%
same,OS Rate 2-year,[2]; 3 mg/kg,45%
same,Estimated Median DOR,[2]; 10 mg/kg,83.1 wks
same,Median OS,[2]; 10 mg/kg,9.2 mo
same,Median PFS,[2]; 10 mg/kg,3.7 mo
same,ORR,[2]; 10 mg/kg,20.3%
same,OS Rate 1-year,[2]; 10 mg/kg,40%
same,OS Rate 2-year,[2]; 10 mg/kg,19%
same,"of these, responses ongoing at the time of reporting",[2]; 5 of 6,83%
same,responders who discontinued for reasons other than disease progression and responded for >30 weeks after the last dose,[2]; 6/16,38%
same,Responses ongoing at the time of analysis,[2]; 10/22,45%
same,patients with ORs with response at first assessment (8 weeks),[2]; 11/22,50%
same,Estimated Median DOR,[2]; All doses,74 wks and 74.0 wks
same,Median OS,[2]; All doses,9.9 mo
same,Median PFS,[2]; All doses,2.3 mo
same,ORR,[2]; All doses,17%
same,OS Rate 1-year,[2]; All doses,42%
same,OS Rate 2-year,[2]; All doses,24%
same,Median OS (95% CI),"[2]; Non-squamous, 1 mg/kg","9.9 (5.3, 22.5) mo"
same,ORR,"[2]; Non-squamous, 1 mg/kg",5.6 (1/18) % (n/N)
same,OS Rate 1-year (95% CI),"[2]; Non-squamous, 1 mg/kg","36 (15, 58)"
same,OS Rate 2-year (95% CI),"[2]; Non-squamous, 1 mg/kg","15 (3, 36)"
same,Median OS (95% CI),"[2]; Non-squamous, 3 mg/kg","18.2 (5.2, NE) mo"
same,ORR,"[2]; Non-squamous, 3 mg/kg",26.3 (5/19) % (n/N)
same,OS Rate 1-year (95% CI),"[2]; Non-squamous, 3 mg/kg","62 (37, 80)"
same,OS Rate 2-year (95% CI),"[2]; Non-squamous, 3 mg/kg","48 (22, 69)"
same,Median OS (95% CI),"[2]; Non-squamous, 10 mg/kg","7.4 (4.5, 12.4) mo"
same,ORR,"[2]; Non-squamous, 10 mg/kg",18.9 (7/37) % (n/N)
same,OS Rate 1-year (95% CI),"[2]; Non-squamous, 10 mg/kg","36 (21, 52)"
same,OS Rate 2-year (95% CI),"[2]; Non-squamous, 10 mg/kg","15 (6, 29)"
same,Median OS (95% CI),"[2]; Non-squamous, All doses","10.1 mo and 10.1 (5.7, 13.7) mo"
same,ORR,"[2]; Non-squamous, All doses",17.6 (13/74) % (n/N)
same,OS Rate 1-year (95% CI),"[2]; Non-squamous, All doses","43 (32, 54)"
same,OS Rate 2-year (95% CI),"[2]; Non-squamous, All doses","23 (13, 34)"
same,ORR,"[2]; PD-L1+ (5% cut-off), Non-squamous",17 (3/18) % (n/N)
same,ORR,"[2]; PD-L1+ (5% cut-off), Squamous",13 (2/15) % (n/N)
same,Median OS,[2]; PD-L1+ tumors,7.8 months
same,Median PFS,[2]; PD-L1+ tumors,3.6 months
same,ORR,"[2]; PD-L1 cut-off 1%, Negative",17 (5/30) % (n/N)
same,ORR,"[2]; PD-L1 cut-off 1%, Positive",13 (5/38) % (n/N)
same,ORR,"[2]; PD-L1 cut-off 5%, Negative, all patients",14 (5/35) % (n/N)
same,ORR,"[2]; PD-L1 cut-off 5%, Positive, all patients",15 (5/33) % (n/N)
same,ORR,"[2]; PD-L1− (5% cut-off), Non-squamous",10 (2/21) % (n/N)
same,ORR,"[2]; PD-L1− (5% cut-off), Squamous",21 (3/14) % (n/N)
same,Median OS,[2]; PD-L1− tumors,10.5 months
same,Median PFS,[2]; PD-L1− tumors,1.8 months
same,Median OS (95% CI),"[2]; Squamous, 1 mg/kg","8.0 (2.4, 13.3) mo"
same,ORR,"[2]; Squamous, 1 mg/kg",0 (0/15) % (n/N)
same,OS Rate 1-year (95% CI),"[2]; Squamous, 1 mg/kg","27 (7, 51)"
same,OS Rate 2-year (95% CI),"[2]; Squamous, 1 mg/kg","9 (1, 32)"
same,Median OS (95% CI),"[2]; Squamous, 3 mg/kg","9.5 (5.3, NE) mo"
same,ORR,"[2]; Squamous, 3 mg/kg",22.2 (4/18) % (n/N)
same,OS Rate 1-year (95% CI),"[2]; Squamous, 3 mg/kg","49 (23, 71)"
same,OS Rate 2-year (95% CI),"[2]; Squamous, 3 mg/kg","41 (17, 64)"
same,Median OS (95% CI),"[2]; Squamous, 10 mg/kg","10.5 (4.9, 16.7) mo"
same,ORR,"[2]; Squamous, 10 mg/kg",23.8 (5/21) % (n/N)
same,OS Rate 1-year (95% CI),"[2]; Squamous, 10 mg/kg","43 (22, 62)"
same,OS Rate 2-year (95% CI),"[2]; Squamous, 10 mg/kg","22 (7, 42)"
same,Median OS (95% CI),"[2]; Squamous, All doses","9.2 mo and 9.2 (7.3, 12.5) mo"
same,ORR,"[2]; Squamous, All doses",16.7 (9/54) % (n/N)
same,OS Rate 1-year (95% CI),"[2]; Squamous, All doses","40 (27, 54)"
same,OS Rate 2-year (95% CI),"[2]; Squamous, All doses","24 (13, 37)"
same,patients maintaining SD for ≧48 weeks,[2]; across doses,5%
same,mean plateau PD-1 occupancy,[3]; range 59% to 81%,72%
same,mean PD-1 occupancy rate,[3]; range 70% to 97%,85%
